The record followed here is ChEMBL document CHEMBL1201862, “PubChem BioAssay data set” (2004).

Calls of active or inactive are those of the source.

One assay deals with Cytochrome P450 2C9 (Homo sapiens, UniProt P11712). The settings on record: Potency.
For a further assay, the target named is Cytochrome P450 3A4 (Homo sapiens, UniProt P08684). The settings on record: Potency.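 Further: confirmatory qHTS run detecting inhibitors and substrates of CYP3A4.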
Another assay has as its target T1, Bcl-2-like protein 10 (Homo sapiens, UniProt Q9HD36).
T1 sequence (Q9HD36 whole entry): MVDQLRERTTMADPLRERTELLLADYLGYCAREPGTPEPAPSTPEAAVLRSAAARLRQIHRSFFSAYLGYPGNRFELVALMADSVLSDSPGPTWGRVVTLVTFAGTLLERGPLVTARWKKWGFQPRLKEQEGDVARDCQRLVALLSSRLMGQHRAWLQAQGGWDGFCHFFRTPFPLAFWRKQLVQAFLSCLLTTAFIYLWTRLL
In words: Bcl-B/TR3 peptide binding disruption – biochemical, fluorescence polarization, FITC-TR3 peptide, selectivity assay for Bfl-1 inhibitor project, primary screen (AID 748). (In general: Fluorescence polarisation rises when a labelled molecule tumbles more slowly, as on binding a larger partner.)

Assay [1] in a line: viability loss in THP-1 monocytes – THP-1 cells, cytotoxicity control for Vif-APOBEC3G degradation inhibitor project, dose response (AID 1117359). The class given is functional. The following applies: THP-1.
Another assay has as its target Estrogen receptor beta (Homo sapiens, UniProt Q92731). In words: blockers of SRC-3 recruitment to ERβ – biochemical, ELISA, streptavidin-HRP readout, orthogonal assay, confirmation (AID 1060).
The target in another assay is T2, Protein Tat (Human immunodeficiency virus type 1 group M subtype B (isolate HXB2)(HIV-1), UniProt P04608).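 Further: tat binding to TAR RNA read out by fluorescence polarization.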
T2 sequence (P04608 whole entry): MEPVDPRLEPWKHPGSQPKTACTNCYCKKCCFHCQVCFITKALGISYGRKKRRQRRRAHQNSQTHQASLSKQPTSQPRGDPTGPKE
The format is functional.

For assay [2], the target named is T3, Glutathione-S-transferase (Schistosoma japonicum, UniProt Q26513).
T3 sequence (Q26513 whole entry): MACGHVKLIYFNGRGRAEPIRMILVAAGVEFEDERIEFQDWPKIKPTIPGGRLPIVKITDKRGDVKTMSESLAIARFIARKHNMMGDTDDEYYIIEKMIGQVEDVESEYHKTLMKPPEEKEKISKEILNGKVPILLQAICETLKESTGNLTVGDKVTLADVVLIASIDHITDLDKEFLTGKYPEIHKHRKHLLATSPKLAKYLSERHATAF
In words: GST-antibody interaction or FRET quenching – biochemical, TR-FRET, artefact control for Vif-APOBEC3G degradation inhibitor project, dose response (AID 1117362). The format is functional.

The target of assay [3] is T4, Endoribonuclease toxin MazF (Escherichia coli K-12, UniProt P0AE70).
T4 sequence (P0AE70 whole entry): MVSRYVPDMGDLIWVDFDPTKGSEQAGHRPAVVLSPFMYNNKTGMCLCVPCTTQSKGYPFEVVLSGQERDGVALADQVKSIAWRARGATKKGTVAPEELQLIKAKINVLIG
In words: activation of MazEF endoribonuclease cleavage – biochemical, fluorescence, single-stranded RNA substrate, uHTS hits, dose response (AID 588481). The class given is functional.

The target in assay [4] is T5, SUMO-activating enzyme (Homo sapiens, UniProt Q9UBT2). In words: blockers of SAE1/SAE2–UBC9 SUMO transfer – biochemical, HTRF, uHTS, primary screen (AID 2006). The class given is protein-complex assay. On the technique in general: TR-FRET usually uses a lanthanide donor and a delayed reading to cut background.
T5 sequence (Q9UBE0 whole entry): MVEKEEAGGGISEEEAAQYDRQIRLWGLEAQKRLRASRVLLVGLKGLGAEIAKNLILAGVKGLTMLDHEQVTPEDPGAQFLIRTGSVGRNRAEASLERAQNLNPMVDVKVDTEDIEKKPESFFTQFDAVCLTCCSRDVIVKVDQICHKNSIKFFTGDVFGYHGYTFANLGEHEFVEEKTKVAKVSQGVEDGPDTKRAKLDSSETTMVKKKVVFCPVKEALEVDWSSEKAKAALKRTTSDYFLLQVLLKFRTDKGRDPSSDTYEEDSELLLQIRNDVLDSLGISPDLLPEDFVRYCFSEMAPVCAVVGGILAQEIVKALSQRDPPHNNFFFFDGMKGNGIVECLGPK
T5 sequence (Q9UBT2 whole entry): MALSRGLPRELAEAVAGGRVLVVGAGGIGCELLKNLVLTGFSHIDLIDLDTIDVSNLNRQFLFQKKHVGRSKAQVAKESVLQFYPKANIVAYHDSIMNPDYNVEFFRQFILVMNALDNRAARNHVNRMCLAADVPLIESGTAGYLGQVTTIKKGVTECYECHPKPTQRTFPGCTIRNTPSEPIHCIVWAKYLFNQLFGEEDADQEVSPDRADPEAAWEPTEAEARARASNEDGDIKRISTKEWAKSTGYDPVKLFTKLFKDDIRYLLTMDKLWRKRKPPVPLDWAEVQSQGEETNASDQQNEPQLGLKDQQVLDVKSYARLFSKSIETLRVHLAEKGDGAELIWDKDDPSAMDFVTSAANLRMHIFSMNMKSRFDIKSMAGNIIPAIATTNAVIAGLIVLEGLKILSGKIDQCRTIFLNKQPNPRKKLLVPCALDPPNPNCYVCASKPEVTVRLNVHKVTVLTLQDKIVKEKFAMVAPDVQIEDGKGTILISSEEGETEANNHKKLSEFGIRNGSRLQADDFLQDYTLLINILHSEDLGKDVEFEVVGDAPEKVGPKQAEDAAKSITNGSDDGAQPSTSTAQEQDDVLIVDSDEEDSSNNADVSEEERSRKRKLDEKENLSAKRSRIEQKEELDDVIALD
The target in assay [5] is T4, Endoribonuclease toxin MazF. In words: substrate-only fluorescence increase artefacts – biochemical, single-stranded RNase substrate, counter-screen for MazEF activator project, dose response (AID 588502). The class given is functional. On the technique in general: A counterscreen serves to expose hits that act by an unwanted route or on another target.
Assay [6] has as its target T5, SUMO-activating enzyme. In words: blockers of UBC9-mediated SUMO conjugation – biochemical, AlphaScreen, SUMOylation inhibitor project, confirmation (AID 2018). The format is functional.
Assay [7] deals with T6, Epstein-Barr nuclear antigen 1 (Epstein-Barr virus (strain B95-8) (HHV-4) (Human herpesvirus 4), UniProt P03211).
T6 sequence (P03211 whole entry): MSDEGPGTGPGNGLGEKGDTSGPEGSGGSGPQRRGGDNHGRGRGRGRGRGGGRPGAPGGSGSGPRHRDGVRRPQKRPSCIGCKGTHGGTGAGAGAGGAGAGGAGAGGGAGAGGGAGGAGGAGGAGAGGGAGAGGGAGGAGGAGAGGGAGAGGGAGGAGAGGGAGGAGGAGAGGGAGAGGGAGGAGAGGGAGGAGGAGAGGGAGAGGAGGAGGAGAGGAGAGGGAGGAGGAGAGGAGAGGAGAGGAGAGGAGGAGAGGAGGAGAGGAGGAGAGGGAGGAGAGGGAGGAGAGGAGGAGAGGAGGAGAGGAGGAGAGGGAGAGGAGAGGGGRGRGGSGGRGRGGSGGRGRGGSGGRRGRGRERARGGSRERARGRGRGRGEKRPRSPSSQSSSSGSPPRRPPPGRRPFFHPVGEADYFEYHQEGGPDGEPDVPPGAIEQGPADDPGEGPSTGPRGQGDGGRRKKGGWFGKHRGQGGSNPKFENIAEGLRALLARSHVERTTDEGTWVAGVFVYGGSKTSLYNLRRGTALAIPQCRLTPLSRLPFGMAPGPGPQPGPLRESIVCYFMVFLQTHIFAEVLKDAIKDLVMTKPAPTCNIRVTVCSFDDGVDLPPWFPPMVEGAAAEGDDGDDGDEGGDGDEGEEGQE
In words: inhibition of EBV nuclear antigen 1 DNA binding – biochemical, fluorescence polarization, 1536-well, dose response (AID 2381).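 Further: fluorescence polarization of a Cy5 DNA probe bound by EBNA-1 protein.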 Further details: species or system human gammaherpesvirus 4.

Assay [8] is described as follows: HEK-293T cell viability reduction – luminescence, B-cell screen hits, cytotoxicity control for BCR NF-kB inhibitor project, dose response (AID 489021).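 Further: HEK-293T cells carrying an NF-kB luciferase reporter; cells exposed to compound for about 14 hours before viability readout.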 The format is functional, cell-based.
The target in assay [9] is T7, Lytic switch protein BZLF1 (Epstein-Barr virus (strain B95-8) (HHV-4) (Human herpesvirus 4), UniProt P03206).
T7 sequence (P03206 whole entry): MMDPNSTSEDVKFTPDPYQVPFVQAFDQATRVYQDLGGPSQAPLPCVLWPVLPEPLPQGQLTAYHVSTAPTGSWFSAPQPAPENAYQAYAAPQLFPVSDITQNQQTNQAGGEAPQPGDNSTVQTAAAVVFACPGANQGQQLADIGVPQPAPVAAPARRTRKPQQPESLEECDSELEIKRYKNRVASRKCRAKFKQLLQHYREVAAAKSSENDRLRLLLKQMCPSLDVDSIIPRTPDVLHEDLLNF
In words: inhibition of BZLF1 ZTA DNA binding – biochemical, fluorescence polarization, Epstein-Barr virus, 1536-well, counter-screen for EBNA-1 inhibitor project, dose response (AID 2377).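 Further: fluorescence polarization of Cy5-labelled ZRE DNA probe bound by purified Zta.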 Further details: species or system human gammaherpesvirus 4.

Chain of Cytochrome P450 3A4 (P08684 whole entry): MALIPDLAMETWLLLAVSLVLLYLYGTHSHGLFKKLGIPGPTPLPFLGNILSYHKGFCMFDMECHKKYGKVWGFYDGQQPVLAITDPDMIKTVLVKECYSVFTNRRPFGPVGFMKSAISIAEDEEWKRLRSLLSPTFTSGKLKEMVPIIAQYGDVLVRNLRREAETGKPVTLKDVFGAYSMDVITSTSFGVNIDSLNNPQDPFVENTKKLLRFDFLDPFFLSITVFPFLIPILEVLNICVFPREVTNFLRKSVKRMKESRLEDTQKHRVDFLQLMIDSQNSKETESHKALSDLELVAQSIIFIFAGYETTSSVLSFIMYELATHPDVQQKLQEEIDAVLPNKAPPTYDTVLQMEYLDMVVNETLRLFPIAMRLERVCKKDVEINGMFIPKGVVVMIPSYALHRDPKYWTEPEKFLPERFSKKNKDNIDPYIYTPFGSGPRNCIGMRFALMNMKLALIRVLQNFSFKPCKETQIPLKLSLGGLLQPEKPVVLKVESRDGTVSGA
Chain of Cytochrome P450 2C9 (P11712 whole entry): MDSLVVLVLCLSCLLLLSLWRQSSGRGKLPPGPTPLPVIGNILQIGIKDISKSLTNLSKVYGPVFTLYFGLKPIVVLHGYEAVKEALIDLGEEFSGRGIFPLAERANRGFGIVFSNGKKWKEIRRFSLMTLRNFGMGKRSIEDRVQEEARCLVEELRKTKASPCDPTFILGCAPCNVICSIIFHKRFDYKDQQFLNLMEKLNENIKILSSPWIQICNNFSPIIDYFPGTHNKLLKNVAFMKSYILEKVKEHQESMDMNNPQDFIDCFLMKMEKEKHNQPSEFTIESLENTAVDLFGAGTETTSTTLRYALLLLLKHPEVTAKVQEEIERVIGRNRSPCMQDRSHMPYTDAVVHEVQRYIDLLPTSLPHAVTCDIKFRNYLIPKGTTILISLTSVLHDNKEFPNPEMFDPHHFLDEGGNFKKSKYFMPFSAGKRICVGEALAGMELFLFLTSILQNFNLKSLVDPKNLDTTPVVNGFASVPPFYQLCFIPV
Chain of Estrogen receptor beta (Q92731 whole entry): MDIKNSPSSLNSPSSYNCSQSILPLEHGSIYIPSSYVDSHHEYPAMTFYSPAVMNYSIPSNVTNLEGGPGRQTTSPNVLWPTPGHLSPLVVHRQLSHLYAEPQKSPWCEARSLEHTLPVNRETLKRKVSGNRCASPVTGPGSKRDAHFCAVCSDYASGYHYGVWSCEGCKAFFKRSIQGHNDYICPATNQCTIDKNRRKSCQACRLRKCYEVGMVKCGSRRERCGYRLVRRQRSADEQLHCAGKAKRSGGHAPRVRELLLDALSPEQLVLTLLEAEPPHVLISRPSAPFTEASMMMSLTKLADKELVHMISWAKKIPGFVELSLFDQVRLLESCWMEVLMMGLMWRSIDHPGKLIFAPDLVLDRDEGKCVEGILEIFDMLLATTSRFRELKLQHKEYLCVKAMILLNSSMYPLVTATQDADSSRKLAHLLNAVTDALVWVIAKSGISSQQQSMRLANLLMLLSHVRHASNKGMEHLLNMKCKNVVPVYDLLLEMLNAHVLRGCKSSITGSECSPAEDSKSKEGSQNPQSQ

In the case of `N[C@@H](Cc1cc(O)c(O)cc1O)C(=O)O`, the AC50 – broadly, the concentration at which the activity in the assay is half-maximal – was 39.8 µM (inconclusive) at Cytochrome P450 2C9 and 15.8 µM (inconclusive) on Cytochrome P450 3A4.
Turning to `CN(C)c1ccc(NC(=O)CN2C(=O)CC(c3ccccc3)=Nc3ccccc32)cc1`, the IC50 – broadly, the point on the concentration scale where inhibition reaches its midpoint – at Bcl-2-like protein 10 is > 100 µM (inactive).
As to `CN(C)c1ccc(NC(=O)Cn2cc3c(n2)CCCC3)cc1`, the IC50 was 21.8 µM (active) at Bcl-2-like protein 10, 0.326 µM (not active) against Estrogen receptor beta, > 100 µM (inconclusive) on Protein Tat and 22.1 µM (active) in assay [2]. Further, the CC50 (in general, the concentration that lowers cell viability or growth by half) in [1] was 22.2 µM (active).
For `CC1CCC2C(=O)N3C(CCC(C)[C@H]3c3cccc(N4CCCC4=O)c3)C(=O)N2C1c1cccc(N2CCCC2=O)c1` (some centres undefined), the AC50 at Cytochrome P450 2C9 and on Cytochrome P450 3A4 was 2.51 µM (inconclusive) throughout.
Turning to `O=C1NC(=O)C(=Cc2c[nH]c3ccc(OCc4ccccc4)cc23)C(=O)N1`, the EC50 in assay [3] and in [5] was > 99 µM (inactive) throughout. Also, the IC50 is 11 µM (active) on SUMO-activating enzyme [4] and 20.9 µM (active) at SUMO-activating enzyme [6].
As for `Cn1c(=O)n(C)c2cc(/C=C3/NC(=O)N(Cc4ccccc4)C3=O)ccc21`, the IC50 in assay [7] is 11.2 µM (not active); in assay [8], > 80 µM (inactive); in [9], > 111 µM (not active).
Turning to `O=[N+]([O-])c1ccccc1/C=C/C=N/n1c(S)nnc1-c1cc(-c2ccccc2)[nH]n1`, the IC50 on SUMO-activating enzyme [4] is 26.8 µM (active); at SUMO-activating enzyme [6], 10.3 µM (active).
